Here are results for 4 molecules from patent publication US8778304B2, “TSPO-targeting compounds and uses thereof” (The Johns Hopkins University, priority 2010, dated 2014).

Data set [1] has as its target T1, TSPO (Homo sapiens, UniProt P30536). The following applies: cited from earlier work.
The subject of data set [2] is TSPO. The following applies: cited from earlier work.
The target in data set [3] is T1, TSPO. The following applies: first human study; cited from earlier work.
The target of data set [4] is T2, TSPO (Mus musculus, UniProt P50637). The following applies: Sandhoff mice at 4 months of age; cited from earlier work.
The target in data set [5] is T3, TSPO (Rattus norvegicus, UniProt P16257).
T3 construct: Fresh-frozen brains were sectioned (20 μm) on a freezing cryostat in the horizontal plane; from tissue; host or cells: rat brain sections (control and neurotoxicant-treated)
As to the kind of experiment: In vitro autoradiography with [125I]1 on rat brain sections (neurotoxicant model of brain inflammation). The class given is binding. As to the method: Fresh-frozen brains were sectioned (20 μm) on a freezing cryostat in the horizontal plane. Brain sections were thaw-mounted onto poly-L-lysine-coated slides (Sigma) and stored at −20° C. until used. Autoradiography using [^125I]IodoDPA-713 ([^125I]1) was performed on adjacent brain sections using the following procedures. Slides were thawed and dried at 37° C. for 30 min and prewashed in 50 mM Tris-HCl buffer (pH 7.4) for 5 min at room temperature. Sections were then incubated in 1.4 nM [^125I]1 in 50 mM Tris-HCl buffer for 30 min at room temperature. For non-specific binding, adjacent sections were incubated in the presence of 10 μM racemic PK11195. The reaction was terminated by two 3 min washes in cold buffer (4° C.) and two dips in cold deionized water (4° C.). Sections were air-dried and apposed to Kodak Bio-Max MR film for 1 h. Images were acquired using the MCID image analysis software (InterFocus Imaging Ltd., Cambridge, England).
The first study involved a model of brain inflammation in which rats were exposed to a seizure-inducing neurotoxicant (FIG. 2). Note that higher levels of [^125I]1 were present in the neurotoxicant-treated rat brain (FIG. 2B) than in control brain (FIG. 2A). Exposure of the tissue specimens to [^125I]1 to generate these images required only 60 min, as opposed to 4-5 weeks often needed for tritium-labeled compounds when exposing the samples to film.

Data set [6] has as its target T2, TSPO. Put plainly: SPECT-CT imaging of LPS-induced lung inflammation in mice. The class given is in vivo. To be noted: for lung signal to background ratio: 1 h postinjection, lungs vs muscle. The protocol:
Eight- to 10-week-old female CD-1 mice (Charles River Labs) were imaged. Mice were anesthetized by brief isoflurane sedation. While anesthetized, intranasal instillation was conducted by placing 10 μg/60 μL (167 μg/mL) of lipopolysaccharide (LPS) onto the nares (Szarka et al., “A murine model of pulmonary damage induced by lipopolysaccharide via intranasal instillation,” J. Immunol. Methods, vol. 202, pp. 49-57, 1997). The 60 μL sample was applied onto the nares as three 20 μL drops. Phosphate-buffered saline (PBS) was administered in a similar fashion and used as the control.
For single photon emission computed tomography-computed tomography (SPECT-CT) imaging 18.5 MBq (500 μCi) of [^125I]1 was injected via the tail vein into the LPS and PBS treated mice and imaged 1 h later, which corresponded to 24 h after the administration of LPS or PBS. That time point was chosen since it represents the time at which there is maximum inflammation in the lungs, as determined by a time course study with histologic correlation (data not shown). Each mouse was anesthetized with isoflurane and maintained under 1-2% isoflurane in oxygen. The mouse was positioned on the X-SPECT (Gamma Medica, Northridge, Calif.) gantry and was scanned using two opposing low energy pinhole collimators (Gamma Medica) rotating through 360° in 3° increments for 20 s per increment. Images were reconstructed using LumaGem software that accompanies the X-SPECT. Immediately following SPECT acquisition, the mice were scanned by CT over a 3-cm field-of-view using a 600-μA, 50 kV beam. […] Data were reconstructed using the ordered subsets-expectation maximization (OS-EM) algorithm. The signal to background ratio was calculated from the images by drawing regions of interest over the lungs (signal) and muscle, (background).

Data set [7] concerns the target T2, TSPO. As to the kind of experiment: [125I]-IodoDPA713 microSPECT/CT imaging of heart in coxsackievirus-induced myocarditis mice. In kind it is in vivo. As to the method:
(§1) An X-SPECT small-animal SPECT/CT system (Gamma Medica-Ideas) was used for image acquisition. Each mouse was anesthetized with isofluorane prior to imaging. About 1-2 mCi of [^125I]-IodoDPA713 was injected into each mouse via intravenous injection, and images were acquired immediately after injection. The SPECT projection data were acquired using 2 low-energy, high-resolution parallel-hole collimators with a radius of rotation of 4.65 cm (spatial resolution, 1.6 mm). The tomographic data were acquired in 64 projections over 360° at 20 s per projection. After tomography, CT was acquired in 512 projections to allow anatomic coregistration. Data were reconstructed using the ordered subsets-expectation maximization algorithm and analyzed using AMIDE software (free software provided by SourceForge). Data was analyzed using Analysis software, and time activity curve of the [^125I]-IodoDPA713 uptake was generated for each mouse. Three mice per treatment were scanned for the study.

In data set [8] the target is T2, TSPO. Put plainly: [125I]-IodoDPA713 microSPECT/CT dynamic in vivo imaging of TSPO in Sandhoff disease mice. Also on record: Fresh-frozen brains were sectioned (20 μm) on a freezing cryostat in the horizontal plane; from tissue; host or cells: mouse brain sections (fresh-frozen for A4, PLP-fixed for A5). The protocol:
as §1, with “genotype” for “treatment”, “study. For the blocking study, non-radioactive IodoDPA713 (20 μM) was intravenously co-injected with [^125I]-IodoDPA713, and images were acquired immediately after [^125I] injection.” for “study.”

The target of data set [9] is T2, TSPO. Put plainly: Quantitative receptor autoradiography with [125I]-IodoDPA713 on Sandhoff mouse brain sections. In kind it is binding. Also on record: Fresh-frozen brains were sectioned (20 μm) on a freezing cryostat in the horizontal plane; from tissue; host or cells: mouse brain sections (fresh-frozen for A4, PLP-fixed for A5). As to the method: Fresh-frozen brains were sectioned (20 μm) on a freezing cryostat in the horizontal plane. Brain sections were thaw-mounted onto poly-L-lysine-coated slides (Sigma-Aldrich, St. Louis, Mo.) and stored at −20° C. until used. [^125I]-IodoDPA713 autoradiography to measure TSPO levels were performed on adjacent brain sections using the same procedures. Slides were thawed and dried at 37° C. for 30 min and prewashed in 50 mM Tris-HCl buffer (pH 7.4) for 5 min at room temperature. Sections were then incubated in 0.5 nM [^125I]-IodoDPA713 in buffer for 30 min at room temperature. For non-specific binding, adjacent sections were incubated in the presence of […] racemic PK11195. The reaction was terminated by two 3-min washes in cold buffer (4° C.) and two dips in cold deionized water (4° C.). Sections incubated with [^125I]-IodoDPA713 were apposed to Kodak Bio-Max MR films with [^125I]-Microscales (GE Healthcare, Piscataway, N.J.) for 1 h. Images were acquired and quantified using the MCID software (InterFocus Imaging Ltd, Cambridge, England).

T1 sequence (P30536 whole entry): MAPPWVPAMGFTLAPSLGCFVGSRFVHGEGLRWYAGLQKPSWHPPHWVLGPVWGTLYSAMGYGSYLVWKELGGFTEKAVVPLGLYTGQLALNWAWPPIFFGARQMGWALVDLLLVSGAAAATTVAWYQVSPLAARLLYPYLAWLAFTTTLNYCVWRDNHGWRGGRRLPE

On to `CCN(CC)C(=O)Cc1c(-c2ccc(OC)cc2)nn2c(C)cc(C)nc12` [DPA-713, N,N-diethyl-2-[2-(4-methoxy-phenyl)-5,7-dimethyl-pyrazolo[1,5-a]pyrimidin-3-yl]-acetamide], for which the “affinity for TSPO relative to PK11195” value on TSPO [1] is “nearly twice”.

As to `CCN(CC)C(=O)Cc1c(-c2ccc(OC)cc2)nn2c(C)cc(C)nc12` [[^11C]DPA-713], the “brain uptake relative to [11C]-PK11195” value in the data set on TSPO [2] (PET imaging) is “higher brain uptake”. For the same molecule, in the data set with TSPO [2] (rodent model of brain injury), the “signal-to-noise ratios relative to [11C]PK11195” value was “higher signal-to-noise ratios”. For the same molecule, the “binding potential relative to [11C]PK11195” value at TSPO [3] was “higher binding potential”.

Turning to `CCC(C)N(C)C(=O)c1cc2ccccc2c(-c2ccccc2Cl)n1` (centres unmarked) [[^11C]PK11195], the “PET uptake in Sandhoff mice compared to wildtype” value at TSPO [4] is “higher”. Moreover, in the data set on TSPO [2] (in vivo), the brain uptake entry is given as “poor brain uptake” and the non-specific binding result is recorded as “significant non-specific binding”.

`CCN(CC)C(=O)Cc1c(-c2ccc(OC)c([125I])c2)nn2c(C)cc(C)nc12` [[^125I]1, N,N-Diethyl-2-[2-(3-[^125I]-iodo-4-methoxyphenyl)-5,7-dimethylpyrazolo[1,5-a]pyrimidin-3-yl]acetamide]: the “level of [125I]1 binding in neurotoxicant-treated rat brain versus control brain” value at TSPO [5] (1.4 nM tracer, horizontal brain sections, FIG. 2A/2B) was “higher levels”. In addition, the “blocking of [125I]1 uptake by PK11195 (specificity for TSPO)” value on TSPO [5] (neurotoxicant-treated rat, 10 μM PK11195, FIG. 2C) is given as “almost completely blocked”. The “lung signal to background ratio” value at TSPO [6] (LPS treated mouse) came to 21.2; at TSPO [6] (control mouse), 14.6. Besides, the “uptake in inflamed mouse lungs relative to normal lungs” value on TSPO [6] (SPECT-CT, FIG. 3) came to 1.5 fold. Besides, at TSPO [7] (coxsackievirus-injected mice), the “organ specificity of increased uptake (lungs and liver also analyzed)” value is listed as “heart-specific”. Besides, the “tracer uptake (SUV) in heart, coxsackievirus-injected versus PBS-injected control mice” value at TSPO [7] (n=3, p<0.05, FIG. 15) is “statistically significant increase”. Further, the “tracer uptake (SUV) in thalamus, Sandhoff versus wildtype” value on TSPO [8] (2 months, p=0.0484) is “statistically significant increase”. Moreover, the “tracer uptake (SUV) in brainstem, Sandhoff versus wildtype” value at TSPO [8] (3 months, p=0.0172) was “statistically significant increase”. Also, the “tracer uptake with blocker versus without blocker” value on TSPO [8] (Sandhoff mouse, co-injected nonradioactive IodoDPA713 (20 μM)) was “reduced uptake”. Further, on TSPO [8] (quantitative analysis, FIG. 8K), the “tracer uptake (SUV) in thalamus, cerebellum and brainstem, Sandhoff versus wildtype” value is “trend of increased uptake”. Besides, the “tracer uptake in thalamus, Sandhoff versus wildtype (time-activity curve)” value on TSPO [8] (thalamus, FIG. 8J) was “consistently had higher uptake”. Also, the “binding in cerebellum, Sandhoff versus wildtype” value is reported as “modest increase” on TSPO [9] (2 months, did not reach statistical significance, p=0.098) and “increased binding” on TSPO [9] (3 months, p=0.0151). Also, the “binding to TSPO in thalamus, Sandhoff versus wildtype” value at TSPO [9] (2 months, p=0.0007) is “significant increases”. For the same molecule, on TSPO [9] (2 months, p=0.0011), the “binding to TSPO in brainstem, Sandhoff versus wildtype” value was “significant increases”. The “binding in hippocampus, Sandhoff versus wildtype” value on TSPO [9] (2 months, p=0.63) was “no significant increase”; on TSPO [9] (3 months, p=0.5912), “no increased TSPO binding”. Moreover, the “binding in cerebral cortex, Sandhoff versus wildtype” value at TSPO [9] (2 months, p=0.98) was “no significant increase”; on TSPO [9] (3 months, p=0.0037), “increased binding”. Also, the “binding in thalamus, Sandhoff versus wildtype” value on TSPO [9] (3 months, p<0.0001) was “increased TSPO binding”. For the same molecule, the “binding in brainstem, Sandhoff versus wildtype” value on TSPO [9] (3 months, p=0.0016) is listed as “increased TSPO binding”.
